Assay results as given in paper PMC8157947, “Peptidic boronic acids are potent cell-permeable inhibitors of the malaria parasite egress serine protease SUB1” (Proceedings of the National Academy of Sciences of the …, 2021).

Legend:
[1] = tested on: asexual blood-stage P. falciparum (clone 3D7); experiment: SYBR Green I parasite growth assay; format: cell-based, Plasmodium falciparum
Experimental: The impact of the peptidic boronic acids on replication of asexual blood-stage P. falciparum (clone 3D7) was assessed using a SYBR Green I assay, essentially as described by Smilkstein et al. ([22]). Briefly, test compounds (dissolved in dimethyl sulfoxide [DMSO] at concentrations ranging from 4 mM to 5 μM) were added in triplicate to wells of flat bottomed, 96-well microtitre plates (1 μL per well). Wells were then supplemented with 100 μL per well of a P. falciparum parasite culture at 0.1% parasitaemia, 1% hematocrit. Each assay plate also included DMSO-only control wells (1% vol/vol), as well as additional control wells containing uninfected RBCs only. Plates were incubated in sealed, humidified gassed chambers at 37 °C for 96 h to allow the parasites to undergo two entire cycles of erythrocytic growth. Wells were then supplemented with 100 μL 1:5,000 dilution of stock SYBR Green I (Life Technologies, catalog no. S7563) diluted in 20 mM Tris HCl pH 7.5, 5 mM EDTA, 0.008% (weight/vol) saponin, 0.08% (vol/vol) Triton ×100. Plates were agitated to mix, incubated for a further 1 h in the dark at room temperature, then 150 μL samples from each well transferred to a fresh white microwell plate and fluorescence quantified using a SpectraMax M5e plate reader and SoftMax Pro-6.3 software (Ex 485 nm/Em 530 nm). IC50 values were determined from dose–response curves obtained after subtracting background fluorescence values (obtained from the RBC-only wells) from all experimental readings.

trypsin = target: T1, trypsin (Bos taurus, UniProt P00760); experiment: Trypsin inhibition assay (Boc-QAR-AMC cleavage); format: biochemical, bovine
T1 construct: purchased Sigma-Aldrich T1426; host or cells: bovine pancreas
T1 sequence (P00760 24-246): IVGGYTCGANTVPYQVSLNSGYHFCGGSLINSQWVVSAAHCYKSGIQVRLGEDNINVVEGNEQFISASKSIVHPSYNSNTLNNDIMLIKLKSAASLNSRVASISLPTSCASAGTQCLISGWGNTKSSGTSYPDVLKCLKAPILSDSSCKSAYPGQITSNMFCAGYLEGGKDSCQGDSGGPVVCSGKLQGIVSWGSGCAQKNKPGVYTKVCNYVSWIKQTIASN
Experimental: (§1) Analytical data are in accor dance with those reported in the literature12.
(§2) (+)-Pinanediol (1- am inobenzyl)boronate h ydrochloride 9g
(§3) A previousl y reported m ethod was used for the first step of the s ynthesis3.
(§4) Phenylm agnesium brom ide 0.7 M (3.1 m L, 2.15 mm ol, 1.2 equiv) was added dropwise at −78°C to a solution of (+)-pinanediol dichloromethyl boronate 24 (470 m g, 1.79 mmol, 1.0 equiv) in anh ydrous dieth yl ether (10 m L). Af ter 15 m in ZnCl2 1 M (1.8 m L, 1.8 mm ol, 1.0 equiv) was slowl y added at this t em perature. T he reaction m ixture was allowed to warm up to room tem perature over 2 hours. The inorganic precipitate was filtered off and the solvents were rem oved in vacuo. The residue was dissolved in pentane, washed with water and dried over Na2SO4. Rem oval of the solvent gives a product which was forwarded to the next step without purification. […]
(§5) Assays f or inh ib ition of tr yp s in activity (T PC K trea ted, f rom bovine pa ncreas; Sigm a-Aldrich T 1426) were based on cleavage of the fluorogenic peptide substrate Boc -QAR-AMC (Sigma- Aldrich B4153). which contains the fluorescent 7- am ino-4-m ethyl c oum arin (AMC) group. […] Cleavage of this bond results in release of AMC and i ncreased fluorescence. […]

α-chymotrypsin = target: T2, α-chymotrypsin (Bos taurus, UniProt P00766); experiment: α-Chymotrypsin inhibition assay (N-Suc-LLVY-AMC cleavage); format: biochemical; settings: bovine
T2 construct: purchased Sigma-Aldrich C3142; host or cells: bovine pancreas
Experimental: as §1, §2, §3, §4, §5

Compound: CC(=O)NC(C(=O)NC(C(=O)NCC(=O)NC(C)B(O)O)C(C)C)C1CCCC1 (stereo not drawn) [3j]
- EC50 ([1]; Plasmodium falciparum, 3D7, 96 h, two erythrocytic growth cycles, SYBR Green I): 0.26 ± 0.06 µM
- improved growth inhibitory potency ([1]; relative to compound 3b): ~10 fold
- higher potency in long-term growth assay ([1]; relative to short-term egress assays): ~10 fold
- effect on trypsin activity (trypsin; 10 µM): no detectable effect
- IC50 (trypsin; bovine trypsin, Boc-QAR-AMC): > 10 µM
- IC50 (α-chymotrypsin): > 200 µM
